Results from patent US20230085307A1, “PYRIDAZINONE COMPOUND AND HERBICIDE” (NISSAN CHEMICAL CORPORATION, priority 2019, published 2023).

What was measured:
Italian ryegrass = experiment: Test Example 5: herbicidal effect by foliage application, plastic box (Table 20, symbol K); format: in vivo, Italian ryegrass (Lolium multiflorum)
Procedure, shortened: (§1)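 Sow seeds spot-wise in sterilized diluvial soil; cover with ~1.5 cm soil. Grow 14 days in greenhouse, 25° C. to 30° C. Spray foliage with emulsion diluted to predetermined amount. Rate effect after 3 weeks.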

blackgrass = experiment: Test Example 5: herbicidal effect by foliage application, plastic box (Table 20, symbol J); format: in vivo, blackgrass (Alopecurus myosuroides)
Procedure, shortened: as §1

Japanese bulrush = experiment: Test Example 1: herbicidal activity, application before weed generation under submerged conditions (Table 16, symbol B); format: in vivo, Japanese bulrush (Schoenoplectus juncoides); conditions: for Herbicidal effect, B: Japanese bulrush: amount of applied herbicide 320 g/ha
Procedure, shortened: (§2)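 Alluvial soil was flooded to 4 cm depth, weed seeds were sown mixed and 2.5-leaf rice seedlings were transplanted. On sowing day, the compound's emulsion, diluted in water to a set dose, was applied to the water surface. Plants grew at 25–30 °C and were scored 0–5 after three weeks.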

chickweed = experiment: Test Example 5: herbicidal effect by foliage application, plastic box (Table 20, symbol P); format: in vivo, common chickweed (Stellaria media)
Procedure, shortened: as §1

late watergrass = experiment: Test Example 1: herbicidal activity, application before weed generation under submerged conditions (Table 16, symbol A); format: in vivo, late watergrass (Echinochloa oryzicola); conditions: for Herbicidal effect, A: late watergrass: amount of applied herbicide 320 g/ha
Procedure, shortened: as §2

velvetleaf = experiment: Test Example 5: herbicidal effect by foliage application, plastic box (Table 20, symbol M); format: in vivo, velvetleaf (Abutilon theophrasti)
Procedure, shortened: as §1

persian speedwell = experiment: Test Example 5: herbicidal effect by foliage application, plastic box (Table 20, symbol R); format: in vivo, Persian speedwell (Veronica persica)
Procedure, shortened: as §1

windgrass = experiment: Test Example 5: herbicidal effect by foliage application, plastic box (Table 20, symbol L); format: in vivo, windgrass (Apera spica-venti); conditions: foliage application
Procedure, shortened: as §1

redroot pigweed = experiment: Test Example 5: herbicidal effect by foliage application, plastic box (Table 20, symbol N); format: in vivo, redroot pigweed (Amaranthus retroflexus)
Procedure, shortened: as §1

oval-leafed pondweed = experiment: Test Example 1: herbicidal activity, application before weed generation under submerged conditions (Table 16, symbol C); format: in vivo, oval-leafed pondweed (Monochoria vaginalis); conditions: for Herbicidal effect, C: oval-leafed pondweed: amount of applied herbicide 320 g/ha
Procedure, shortened: as §2

wild oat = experiment: Test Example 5: herbicidal effect by foliage application, plastic box (Table 20, symbol I); format: in vivo, wild oat (Avena fatua)
Procedure, shortened: as §1

Chinese sprangletop = experiment: Test Example 3: herbicidal effect by foliage application, Wagner pot (Table 18, symbol D); format: in vivo, chinese sprangletop (Leptochloa chinensis); conditions: for herbicidal effect on Chinese sprangletop (D): 320 g/ha
Procedure, shortened: (§3)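 Plants were sown in alluvial soil held under 0.1–0.5 cm standing water and grown 14 days in a greenhouse at 25–30 °C. An emulsifiable formulation, water-diluted to the set dose, was then sprayed onto the foliage, and effects were scored three weeks later using previously defined criteria.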

barnyard grass [1] = experiment: Test Example 3: herbicidal effect by foliage application, Wagner pot (Table 18, symbol H); format: in vivo, barnyard grass (Echinochloa crus-galli); conditions: for herbicidal effect on barnyard grass (H): 320 g/ha
Procedure, shortened: as §3

green foxtail = experiment: Test Example 5: herbicidal effect by foliage application, plastic box (Table 20, symbol G); format: in vivo, green foxtail (Setaria viridis)
Procedure, shortened: as §1

rice flat sedge = experiment: Test Example 3: herbicidal effect by foliage application, Wagner pot (Table 18, symbol E); format: in vivo, rice flat sedge (Cyperus iria); conditions: for herbicidal effect on rice flat sedge (E): 320 g/ha
Procedure, shortened: as §3

southern crabgrass = experiment: Test Example 5: herbicidal effect by foliage application, plastic box (Table 20, symbol F); format: in vivo, southern crabgrass (Digitaria ciliaris)
Procedure, shortened: as §1

barnyard grass [2] = experiment: Test Example 5: herbicidal effect by foliage application, plastic box (Table 20, symbol H); format: in vivo, barnyard grass (Echinochloa crus-galli)
Procedure, shortened: as §1

lambsquarters = experiment: Test Example 5: herbicidal effect by foliage application, plastic box (Table 20, symbol O); format: in vivo, lambsquarters (Chenopodium album)
Procedure, shortened: as §1

[3] = foliage application, 320 g/ha, three weeks after application
[4] = amount of applied herbicide 320 g/ha
[5] = foliage application, AAH 320 g/ha, evaluated three weeks after application
[6] = 320 g/ha, foliage application after 14-day growth, evaluated three weeks after application
[7] = amount of applied herbicide 320 g/ha, foliage application after 14-day growth, evaluated three weeks after application

COc1ccccc1-c1sc2cc(F)ccc2c1-c1c(OCC(=O)c2ccccc2)c(C)nn(C)c1=O [3-030] was tested, and the “K: Italian ryegrass, herbicidal effect grade” value (Italian ryegrass; [3]) was 0 (Herbicidal rate of 5% or less (almost no effect)), the “J: blackgrass, herbicidal effect grade” value (blackgrass; [3]) was 3 (Herbicidal rate of 40% or more and less than 70%) and the “Herbicidal effect, B: Japanese bulrush” value (Japanese bulrush) was 0 (Herbicidal rate of 5% or less (almost no effect)). The “P: chickweed, herbicidal effect grade” value (chickweed; [3]) was 3 (Herbicidal rate of 40% or more and less than 70%), the “Herbicidal effect, A: late watergrass” value (late watergrass) was 2 (Herbicidal rate of 20% or more and less than 40%) and the “M: velvetleaf, herbicidal effect grade” value (velvetleaf; [3]) was 3 (Herbicidal rate of 40% or more and less than 70%). For the same compound, the “R: persian speedwell, herbicidal effect grade” value (persian speedwell; [3]) was 0 (Herbicidal rate of 5% or less (almost no effect)), the “L: windgrass, herbicidal effect grade” value (windgrass; 320 g/ha, three weeks after application) was 0 (Herbicidal rate of 5% or less (almost no effect)) and the “N: redroot pigweed, herbicidal effect grade” value (redroot pigweed; [3]) was 3 (Herbicidal rate of 40% or more and less than 70%). The “Herbicidal effect, C: oval-leafed pondweed” value (from here on “Herbicidal effect, C”) (oval-leafed pondweed) was 3 (Herbicidal rate of 40% or more and less than 70%), the “I: wild oat, herbicidal effect grade” value (wild oat; [3]) was 0 (Herbicidal rate of 5% or less (almost no effect)) and the “herbicidal effect on D: Chinese sprangletop” value (Chinese sprangletop; [4]) was 2 (Herbicidal rate of 20% or more and less than 40%). For the same compound, the “herbicidal effect on H: barnyard grass” value (barnyard grass [1]; [4]) was 4 (Herbicidal rate of 70% or more and less than 90%), the “G: green foxtail, herbicidal effect grade” value (green foxtail; [3]) was 1 (Herbicidal rate of 5% or more and less than 20%) and the “herbicidal effect on E: rice flat sedge” value (rice flat sedge; [4]) was 0 (Herbicidal rate of 5% or less (almost no effect)). For the same compound, the “F: southern crabgrass, herbicidal effect grade” value (southern crabgrass; [3]) was 0 (Herbicidal rate of 5% or less (almost no effect)), the “H: barnyard grass, herbicidal effect grade” value (barnyard grass [2]; [3]) was 0 (Herbicidal rate of 5% or less (almost no effect)) and the “O: lambsquarters, herbicidal effect grade” value (lambsquarters; [3]) was 1 (Herbicidal rate of 5% or more and less than 20%).
With Cc1nn(C)c(=O)c(-c2c(-c3cccc(OC(C)C#N)c3)sc3ccc(F)cc23)c1O (stereo not shown) [2-277] the “K: Italian ryegrass, herbicidal effect (criteria 0-5)” value (Italian ryegrass; [5]) was 0 (Herbicidal rate of 5% or less (almost no effect)), the “J: blackgrass, herbicidal effect (criteria 0-5)” value (blackgrass; [5]) was 0 (Herbicidal rate of 5% or less (almost no effect)) and the “Herbicidal effect on B: Japanese bulrush (grade 0-5)” value (Japanese bulrush; 320 g/ha applied herbicide) was 0 (Herbicidal rate of 5% or less (almost no effect)). For the same compound, the “P: chickweed, herbicidal effect (criteria 0-5)” value (chickweed; [5]) was 5 (Herbicidal rate of 90% or more (almost completely withered)), the “Herbicidal effect on A: late watergrass (grade 0-5)” value (late watergrass; 320 g/ha applied herbicide) was 1 (Herbicidal rate of 5% or more and less than 20%) and the “M: velvetleaf, herbicidal effect (criteria 0-5)” value (velvetleaf; [5]) was 0 (Herbicidal rate of 5% or less (almost no effect)). For the same compound, the “R: persian speedwell, herbicidal effect (criteria 0-5)” value (persian speedwell; [5]) was 2 (Herbicidal rate of 20% or more and less than 40%), the “L: windgrass, herbicidal effect (criteria 0-5)” value (windgrass; AAH 320 g/ha, evaluated three weeks after application) was 0 (Herbicidal rate of 5% or less (almost no effect)) and the “N: redroot pigweed, herbicidal effect (criteria 0-5)” value (redroot pigweed; [5]) was 2 (Herbicidal rate of 20% or more and less than 40%). The “Herbicidal effect on C: oval-leafed pondweed (grade 0-5)” value (oval-leafed pondweed; 320 g/ha applied herbicide) was 2 (Herbicidal rate of 20% or more and less than 40%), the “I: wild oat, herbicidal effect (criteria 0-5)” value (wild oat; [5]) was 0 (Herbicidal rate of 5% or less (almost no effect)) and the “G: green foxtail, herbicidal effect (criteria 0-5)” value (green foxtail; [5]) was 0 (Herbicidal rate of 5% or less (almost no effect)). The “F: southern crabgrass, herbicidal effect (criteria 0-5)” value (southern crabgrass; [5]) was 0 (Herbicidal rate of 5% or less (almost no effect)), the “H: barnyard grass, herbicidal effect (criteria 0-5)” value (barnyard grass [2]; [5]) was 0 (Herbicidal rate of 5% or less (almost no effect)) and the “O: lambsquarters, herbicidal effect (criteria 0-5)” value (lambsquarters; [5]) was 0 (Herbicidal rate of 5% or less (almost no effect)).
Cc1nn(C)c(=O)c(-c2c(-c3ccc(C#N)cc3)sc3c(Cl)cccc23)c1O [4-031] was tested, and the “herbicidal effect on K: Italian ryegrass (evaluation grade 0-5)” value (Italian ryegrass; [6]) was 3 (Herbicidal rate of 40% or more and less than 70%), the “herbicidal effect on J: blackgrass (evaluation grade 0-5)” value (blackgrass; [6]) was 0 (Herbicidal rate of 5% or less (almost no effect)) and the “Herbicidal effect, B: Japanese bulrush” value (Japanese bulrush) was 0 (Herbicidal rate of 5% or less (almost no effect)). For the same compound, the “herbicidal effect on P: chickweed (evaluation grade 0-5)” value (chickweed; [6]) was 5 (Herbicidal rate of 90% or more (almost completely withered)), the “Herbicidal effect, A: late watergrass” value (late watergrass) was 2 (Herbicidal rate of 20% or more and less than 40%) and the “herbicidal effect on M: velvetleaf (evaluation grade 0-5)” value (velvetleaf; [6]) was 3 (Herbicidal rate of 40% or more and less than 70%). The “herbicidal effect on R: persian speedwell (evaluation grade 0-5)” value (persian speedwell; [6]) was 0 (Herbicidal rate of 5% or less (almost no effect)), the “herbicidal effect on N: redroot pigweed (evaluation grade 0-5)” value (redroot pigweed; [6]) was 5 (Herbicidal rate of 90% or more (almost completely withered)) and the “Herbicidal effect, C” value (oval-leafed pondweed) was 0 (Herbicidal rate of 5% or less (almost no effect)). For the same compound, the “herbicidal effect on I: wild oat (evaluation grade 0-5)” value (wild oat; [6]) was 0 (Herbicidal rate of 5% or less (almost no effect)), the “herbicidal effect on Chinese sprangletop (D)” value (Chinese sprangletop) was 3 (Herbicidal rate of 40% or more and less than 70%) and the “herbicidal effect on barnyard grass (H)” value (barnyard grass [1]) was 3 (Herbicidal rate of 40% or more and less than 70%). The “herbicidal effect on G: green foxtail (evaluation grade 0-5)” value (green foxtail; [6]) was 2 (Herbicidal rate of 20% or more and less than 40%), the “herbicidal effect on rice flat sedge (E)” value (rice flat sedge) was 5 (Herbicidal rate of 90% or more (almost completely withered)) and the “herbicidal effect on F: southern crabgrass (evaluation grade 0-5)” value (southern crabgrass; [6]) was 0 (Herbicidal rate of 5% or less (almost no effect)). The “herbicidal effect on H: barnyard grass (evaluation grade 0-5)” value (barnyard grass [2]; [6]) was 0 (Herbicidal rate of 5% or less (almost no effect)) and the “herbicidal effect on O: lambsquarters (evaluation grade 0-5)” value (lambsquarters; [6]) was 4 (Herbicidal rate of 70% or more and less than 90%).
For CCCC(=O)Oc1c(C)nn(C)c(=O)c1-c1c(-c2ccc(OC)c(OC)c2)sc2cc(F)c(F)cc12 [5-034], the “Herbicidal effect by foliage application, K: Italian ryegrass” value (Italian ryegrass; [7]) was 0 (Herbicidal rate of 5% or less (almost no effect)), the “Herbicidal effect by foliage application, J: blackgrass” value (blackgrass; [7]) was 0 (Herbicidal rate of 5% or less (almost no effect)) and the “Herbicidal effect, B: Japanese bulrush” value (Japanese bulrush) was 0 (Herbicidal rate of 5% or less (almost no effect)). For the same compound, the “Herbicidal effect by foliage application, P: chickweed” value (chickweed; [7]) was 5 (Herbicidal rate of 90% or more (almost completely withered)), the “Herbicidal effect, A: late watergrass” value (late watergrass) was 3 (Herbicidal rate of 40% or more and less than 70%) and the “Herbicidal effect by foliage application, M: velvetleaf” value (velvetleaf; [7]) was 3 (Herbicidal rate of 40% or more and less than 70%). The “Herbicidal effect by foliage application, R: persian speedwell” value (persian speedwell; [7]) was 4 (Herbicidal rate of 70% or more and less than 90%), the “Herbicidal effect by foliage application, N: redroot pigweed” value (redroot pigweed; [7]) was 3 (Herbicidal rate of 40% or more and less than 70%) and the “Herbicidal effect, C” value (oval-leafed pondweed) was 0 (Herbicidal rate of 5% or less (almost no effect)). For the same compound, the “Herbicidal effect by foliage application, I: wild oat” value (wild oat; [7]) was 0 (Herbicidal rate of 5% or less (almost no effect)), the “herbicidal effect on Chinese sprangletop (D)” value (Chinese sprangletop) was 1 (Herbicidal rate of 5% or more and less than 20%) and the “herbicidal effect on barnyard grass (H)” value (barnyard grass [1]) was 4 (Herbicidal rate of 70% or more and less than 90%). For the same compound, the “Herbicidal effect by foliage application, G: green foxtail” value (green foxtail; [7]) was 3 (Herbicidal rate of 40% or more and less than 70%), the “herbicidal effect on rice flat sedge (E)” value (rice flat sedge) was 0 (Herbicidal rate of 5% or less (almost no effect)) and the “Herbicidal effect by foliage application, F: southern crabgrass” value (southern crabgrass; [7]) was 0 (Herbicidal rate of 5% or less (almost no effect)). For the same compound, the “Herbicidal effect by foliage application, H: barnyard grass” value (barnyard grass [2]; [7]) was 0 (Herbicidal rate of 5% or less (almost no effect)) and the “Herbicidal effect by foliage application, O: lambsquarters” value (lambsquarters; [7]) was 4 (Herbicidal rate of 70% or more and less than 90%).
